Test results published in patent publication US10674732B2, “Anti-phytopathogenic compositions” (The State of Israel, Ministry Of Agriculture & Rural …, priority 2015, dated 2020).
In brackets after ≈: the same amount, converted by molar mass.

system: DLB; experiment: DLB antibiotic susceptibility test; format: cell-based, Dyella-like bacterium; settings: not given

Question: NCC[C@H](O)C(=O)N[C@@H]1C[C@H](N)[C@@H](O[C@H]2O[C@H](CN)[C@@H](O)[C@H](O)[C@H]2O)[C@H](O)[C@H]1O[C@H]1O[C@H](CO)[C@@H](O)[C@H](N)[C@H]1O [amikacin] was tested. Which Inhibition cycle diameter did it give?
Answer: Its Inhibition cycle diameter is 10 mm.

Question: How did the Inhibition cycle diameter turn out when CC1(C)S[C@@H]2[C@H](NC(=O)[C@H](N)c3ccc(O)cc3)C(=O)N2[C@H]1C(=O)O [amoxycillin] was run?
Answer: The Inhibition cycle diameter was 10 mm.

Question: CC1(C)S[C@@H]2[C@H](NC(=O)[C@H](N)c3ccccc3)C(=O)N2[C@H]1C(=O)O [ampicilin A] was tested. Which Inhibition cycle diameter did it give?
Answer: The Inhibition cycle diameter was 10 mm.

Question: C[C@H]1[C@H](NC(=O)/C(=N\OC(C)(C)C(=O)O)c2csc(N)n2)C(=O)N1S(=O)(=O)O [aztreonam] was tested. Which Inhibition cycle diameter did it give?
Answer: The Inhibition cycle diameter was 1 mm.

Question: What about the “resistance of the bacterium to the antibiotic” value (from here on “resistance of the bacterium”) of the same compound?
Answer: The value was “resistant”.

Question: Which Inhibition cycle diameter does the source give for CC1(C)S[C@@H]2[C@H](NC(=O)C(C(=O)O)c3ccccc3)C(=O)N2[C@H]1C(=O)O (stereo partly shown) [carbencillin] here?
Answer: The Inhibition cycle diameter was 10 mm.

Question: For CO/N=C(\C(=O)N[C@@H]1C(=O)N2C(C(=O)[O-])=C(C[N+]3(C)CCCC3)CS[C@H]12)c1csc(N)n1 [cefeprime], which Inhibition cycle diameter is on record?
Answer: The Inhibition cycle diameter was 1 mm.

Question: And the “resistance of the bacterium” value?
Answer: The value was “resistant”.

Question: For CO/N=C(\C(=O)N[C@@H]1C(=O)N2C(C(=O)O)=C(CSc3nc(=O)c(=O)[nH]n3C)CS[C@H]12)c1csc(N)n1 [ceftriaxone], which Inhibition cycle diameter is on record?
Answer: The Inhibition cycle diameter was 10 mm.

Question: For CO/N=C(\C(=O)N[C@@H]1C(=O)N2C(C(=O)O)=C(COC(N)=O)CS[C@H]12)c1ccco1 [cefuroxime], which Inhibition cycle diameter is on record?
Answer: Its Inhibition cycle diameter is 1 mm.

Question: What about the “resistance of the bacterium” value of the same compound?
Answer: Its value is “resistant”.

Question: CC(=O)OCC1=C(C(=O)O)N2C(=O)[C@@H](NC(=O)Cc3cccs3)[C@H]2SC1 [cephalothin] was tested. Which Inhibition cycle diameter did it give?
Answer: Its Inhibition cycle diameter is 2 mm.

Question: What about the “resistance of the bacterium” value of the same compound?
Answer: The value was “resistant”.

Question: For O=C(N[C@H](CO)[C@H](O)c1ccc([N+](=O)[O-])cc1)C(Cl)Cl [chloramphenicol], which Inhibition cycle diameter is on record?
Answer: The Inhibition cycle diameter was 10 mm.

Question: For O=C(O)c1cn(C2CC2)c2cc(N3CCNCC3)c(F)cc2c1=O [ciprofloxacin], which Inhibition cycle diameter is on record?
Answer: The Inhibition cycle diameter was 2 mm.

Question: What about the “resistance of the bacterium” value of the same compound?
Answer: Its value is “resistant”.

Question: With C[C@@H](O)[C@H]1C(=O)N2C(C(=O)O)=C(SCCN=CN)C[C@H]12 [imipenem] as the compound, how does the Inhibition cycle diameter read?
Answer: Its Inhibition cycle diameter is 2-3 mm.

Question: Which Inhibition cycle diameter does the source give for NC[C@H]1O[C@H](O[C@H]2[C@H](O)[C@@H](O[C@H]3O[C@H](CO)[C@@H](O)[C@H](N)[C@H]3O)[C@H](N)C[C@@H]2N)[C@H](O)[C@@H](O)[C@@H]1O [kanamycin] here?
Answer: Its Inhibition cycle diameter is 10 mm.

Question: Which Inhibition cycle diameter does the source give for C[C@@H](O)[C@H]1C(=O)N2C(C(=O)O)=C(S[C@@H]3CN[C@H](C(=O)N(C)C)C3)[C@H](C)[C@H]12 [meropenem] here?
Answer: The Inhibition cycle diameter was 1 mm.

Question: And the “resistance of the bacterium” value?
Answer: The value was “resistant”.

Question: With CCn1cc(C(=O)O)c(=O)c2ccc(C)nc21 [nalidixic acid] as the compound, how does the Inhibition cycle diameter read?
Answer: The Inhibition cycle diameter was 1 mm.

Question: And the “resistance of the bacterium” value?
Answer: The value was “resistant”.

Question: How did the Inhibition cycle diameter turn out when O=C1CN(/N=C/c2ccc([N+](=O)[O-])o2)C(=O)N1 [nitrofuration] was run?
Answer: The Inhibition cycle diameter was 2 mm.

Question: And the “resistance of the bacterium” value?
Answer: The value was “resistant”.

Question: How did the Inhibition cycle diameter turn out when CCn1cc(C(=O)O)c(=O)c2cc(F)c(N3CCNCC3)cc21 [norfloxacin] was run?
Answer: Its Inhibition cycle diameter is 2 mm.

Question: What about the “resistance of the bacterium” value of the same compound?
Answer: The value was “resistant”.

Question: With CCN1CCN(C(=O)N[C@@H](C(=O)N[C@@H]2C(=O)N3[C@@H]2SC(C)(C)[C@@H]3C(=O)O)c2ccccc2)C(=O)C1=O [piperacillin] as the compound, how does the Inhibition cycle diameter read?
Answer: Its Inhibition cycle diameter is 10 mm.

Question: [H]/N=C(/N)N[C@H]1[C@H](O)[C@@H](O)[C@H](O[C@@H]2O[C@@H](C)[C@](O)(C=O)[C@H]2O[C@@H]2O[C@@H](CO)[C@H](O)[C@@H](O)[C@@H]2NC)[C@@H](N/C(N)=N\[H])[C@@H]1O [streptomycin] was tested. Which Inhibition cycle diameter did it give?
Answer: Its Inhibition cycle diameter is 10 mm.

Question: How did the Inhibition cycle diameter turn out when Cc1cc(NS(=O)(=O)c2ccc(N)cc2)no1 [sulphamethoxazole] was run?
Answer: Its Inhibition cycle diameter is 10 mm.

Question: CN(C)[C@@H]1C(O)=C(C(N)=O)C(=O)[C@@]2(O)C(O)=C3C(=O)c4c(O)cccc4[C@@](C)(O)[C@H]3C[C@@H]12 [tetracycline] was tested. Which Inhibition cycle diameter did it give?
Answer: Its Inhibition cycle diameter is 10 mm.

Question: CC1(C)S[C@@H]2[C@H](NC(=O)[C@H](C(=O)O)c3ccsc3)C(=O)N2[C@H]1C(=O)O [ticarcillin] was tested. Which Inhibition cycle diameter did it give?
Answer: The Inhibition cycle diameter was 10 mm.

Question: With NC[C@H]1O[C@H](O[C@H]2[C@H](O)[C@@H](O[C@H]3O[C@H](CO)[C@@H](O)[C@H](N)[C@H]3O)[C@H](N)C[C@@H]2N)[C@H](N)C[C@@H]1O [tobaramycin] as the compound, how does the Inhibition cycle diameter read?
Answer: The Inhibition cycle diameter was 10 mm.

Question: Which Inhibition cycle diameter does the source give for COc1cc(Cc2cnc(N)nc2N)cc(OC)c1OC [trimethoprime] here?
Answer: Its Inhibition cycle diameter is 10 mm.

Question: CN[C@H](CC(C)C)C(=O)N[C@H]1C(=O)N[C@@H](CC(N)=O)C(=O)N[C@H]2C(=O)N[C@H]3C(=O)N[C@H](C(=O)N[C@H](C(=O)O)c4cc(O)cc(O)c4-c4cc3ccc4O)[C@H](O)c3ccc(c(Cl)c3)Oc3cc2cc(c3O[C@@H]2O[C@H](CO)[C@@H](O)[C@H](O)[C@H]2O[C@H]2C[C@](C)(N)[C@H](O)[C@H](C)O2)Oc2ccc(cc2Cl)[C@H]1O [vancomycin] was tested. Which Inhibition cycle diameter did it give?
Answer: The Inhibition cycle diameter was 10 mm.

Question: For colistinsulfate, which Inhibition cycle diameter is on record?
Answer: Its Inhibition cycle diameter is 2-3 mm.

Question: And the “resistance of the bacterium” value?
Answer: Its value is “resistant”.

Question: Which Inhibition cycle diameter does the source give for gentanicin G here?
Answer: Its Inhibition cycle diameter is 10 mm.

Question: How did the Inhibition cycle diameter turn out when neomycin was run?
Answer: Its Inhibition cycle diameter is 10 mm.

Question: polymyxin-B was tested. Which Inhibition cycle diameter did it give?
Answer: The Inhibition cycle diameter was 10 mm.

system: Spiroplasma melliferum; experiment: Antagonistic test of the bacteria's supernatant (time to color change of phenol red medium); settings: 0.5 μg/ml

Question: How did the “Inhibition index (ratio of days to color change to the time required in the positive control)” value turn out when CN(C)[C@@H]1C(O)=C(C(N)=O)C(=O)[C@@]2(O)C(O)=C3C(=O)c4c(O)cccc4[C@@](C)(O)[C@H]3[C@H](O)[C@@H]12 [oxytetracycline] was run?
Answer: The value was 2.3.

system: spiroplasma; experiment: Antagonistic test of the bacteria's specific compounds (synthetic compounds on spiroplasma in vitro); format: cell-based, Spiroplasma melliferum; settings: 1 milimolar, three days at 29° C.
Experimental: After potential inhibitory compounds (4-Quinolinecarboxaldehyde and 5-Hydroxymethyl-2-furaldehyde) were identified in the active fraction extracts of the bacteria's supernatant, parallel synthetic compound were purchased (Sigma) and examined on spiroplasma in vitro: 1 ml of spiroplasma medium, 10 μl spiroplasma cells and 10 μl of each compound (final concentration of 1 milimolar) were incubated for three days at 29° C. […] Changes in the indicator color from red to yellow indicated spiroplasma growth.

Question: O=Cc1ccc(CO)o1 [Hydroxymethyl-2-furaldehyde, 5-Hydroxymethyl-2-furaldehyde] was tested. Which spiroplasma growth inhibition did it give?
Answer: Its spiroplasma growth inhibition is “no inhibition”.

Question: O=Cc1ccnc2ccccc12 [Quinolinecarboxaldehyde, 4-Quinolinecarboxaldehyde] was tested. Which spiroplasma growth inhibition did it give?
Answer: The spiroplasma growth inhibition was “able to inhibit”.

system: Spiroplasma melliferum; experiment: Microplate test of spiroplasma growth (OD=595 nm); format: cell-based; settings: 1 mM, single compound
Experimental: For this reason, the potential inhibition of these substances was tested on Spiroplasma melliferum, a cultivable Mollicute. The experiment was conducted in a 96-wells microplate. 150 μl fresh broth containing phenol red and 4 μl spiroplasma cells (app. 10^5 cells) were added to each well. […] The microplate was incubated for two days at 28° C. and the color of the medium was scored by a plate-reader (Multiskan EX, Thermo scientific, Waltham, Mass. USA) at OD=595 nm.

Question: For c1cc2cnccn2c1 [Pyrrolo[1,2-a]pyrazine], which spiroplasma growth inhibition is on record?
Answer: The spiroplasma growth inhibition was “at 2 mM only”.

Question: How did the spiroplasma growth inhibition turn out when O=Cc1ccnc2ccccc12 [Quinolinecarboxaldehyde, 4-Quinolinecarboxaldehyde] was run?
Answer: The spiroplasma growth inhibition was “inhibited”.

same assay, conditions: 2 mM, single compound

Question: Which spiroplasma growth inhibition does the source give for c1cc2cnccn2c1 [Pyrrolo[1,2-a]pyrazine] here?
Answer: The spiroplasma growth inhibition was “inhibit”.

Question: How did the spiroplasma growth inhibition turn out when O=Cc1ccnc2ccccc12 [Quinolinecarboxaldehyde, 4-Quinolinecarboxaldehyde] was run?
Answer: Its spiroplasma growth inhibition is “inhibited”.

same assay, conditions: Spiroplasma melliferum, 48 h; two days at 28° C., FIG. 9; read-out: minimum inhibitory concentration (MIC)

Question: For CN(C)[C@@H]1C(O)=C(C(N)=O)C(=O)[C@@]2(O)C(O)=C3C(=O)c4c(O)cccc4[C@@](C)(O)[C@H]3[C@H](O)[C@@H]12 [oxytetracycline], which MIC is on record?
Answer: The MIC was 350 µM (≈ 161 µg/mL).

same assay, conditions: concentrations examined (2-0.02 mM), single compound

Question: How did the spiroplasma growth inhibition turn out when O=Cc1ccc(CO)o1 [Hydroxymethyl-2-furaldehyde, 5-Hydroxymethyl-2-furaldehyde] was run?
Answer: Its spiroplasma growth inhibition is “No inhibition”.

same assay, conditions: two days at 28° C.

Question: With O=Cc1ccnc2ccccc12 [Quinolinecarboxaldehyde, 4-Quinolinecarboxaldehyde] as the compound, how does the “minimum inhibitory concentration (MIC) compared with reference oxytetracycline” value read?
Answer: The value was “higher than the reference antibiotics”.
